Test results taken from patent US12618095B2, “Medium for Bacillus cereus group detection” (SHIMADZU DIAGNOSTICS CORPORATION, priority 2020, dated 2026).

Key:
B. thuringiensis = test: Test Example 9: concentration of amphotericin B; format: cell-based; details: NBRC101235
C. albicans = test: Test Example 9: concentration of amphotericin B

In the case of `C[C@@H]1[C@H](O)[C@@H](C)/C=C/C=C/C=C/C=C/C=C/C=C/C=C/[C@H](O[C@@H]2O[C@H](C)[C@@H](O)[C@H](N)[C@@H]2O)C[C@@H]2O[C@](O)(C[C@@H](O)C[C@@H](O)[C@H](O)CC[C@@H](O)C[C@@H](O)CC(=O)O[C@H]1C)C[C@H](O)[C@H]2C(=O)O` [Amphotericin B], the Number of colonies (B. thuringiensis; Amphotericin B 0.1 mg, 24 hours, 10^2 cfu/mL) is reported as 28, the Number of colonies (B. thuringiensis; Amphotericin B 0.1 mg, 24 hours, 10^3 cfu/mL) is reported as “+” and the Number of colonies (B. thuringiensis; Amphotericin B 0.1 mg, 24 hours, 10^4 cfu/mL) is reported as “+”. For the same molecule, the Number of colonies (B. thuringiensis; Amphotericin B 0.1 mg, 24 hours, 10^5 cfu/mL) was “+”, the Number of colonies (B. thuringiensis; Amphotericin B 0.1 mg, 44 hours, 10^2 cfu/mL) was 28 and the Number of colonies (B. thuringiensis; Amphotericin B 0.1 mg, 44 hours, 10^3 cfu/mL) was “+”. The Number of colonies (B. thuringiensis; Amphotericin B 0.1 mg, 44 hours, 10^4 cfu/mL) was “+”, the Number of colonies (B. thuringiensis; Amphotericin B 0.1 mg, 44 hours, 10^5 cfu/mL) was “+” and the Number of colonies (B. thuringiensis; Amphotericin B 1.0 mg, 24 hours, 10^2 cfu/mL) was 39. The Number of colonies (B. thuringiensis; Amphotericin B 1.0 mg, 24 hours, 10^3 cfu/mL) was “+”, the Number of colonies (B. thuringiensis; Amphotericin B 1.0 mg, 24 hours, 10^4 cfu/mL) was “+” and the Number of colonies (B. thuringiensis; Amphotericin B 1.0 mg, 24 hours, 10^5 cfu/mL) was “+”. For the same molecule, the Number of colonies (B. thuringiensis; Amphotericin B 1.0 mg, 44 hours, 10^2 cfu/mL) was 39, the Number of colonies (B. thuringiensis; Amphotericin B 1.0 mg, 44 hours, 10^3 cfu/mL) was “+” and the Number of colonies (B. thuringiensis; Amphotericin B 1.0 mg, 44 hours, 10^4 cfu/mL) was “+”. For the same molecule, the Number of colonies (B. thuringiensis; Amphotericin B 1.0 mg, 44 hours, 10^5 cfu/mL) was “+”, the Number of colonies (B. thuringiensis; Amphotericin B 10 mg, 24 hours, 10^2 cfu/mL) was 38 and the Number of colonies (B. thuringiensis; Amphotericin B 10 mg, 24 hours, 10^3 cfu/mL) was “+”. The Number of colonies (B. thuringiensis; Amphotericin B 10 mg, 24 hours, 10^4 cfu/mL) was “+”, the Number of colonies (B. thuringiensis; Amphotericin B 10 mg, 24 hours, 10^5 cfu/mL) was “+” and the Number of colonies (B. thuringiensis; Amphotericin B 10 mg, 44 hours, 10^2 cfu/mL) was 38. For the same molecule, the Number of colonies (B. thuringiensis; Amphotericin B 10 mg, 44 hours, 10^3 cfu/mL) was “+”, the Number of colonies (B. thuringiensis; Amphotericin B 10 mg, 44 hours, 10^4 cfu/mL) was “+” and the Number of colonies (B. thuringiensis; Amphotericin B 10 mg, 44 hours, 10^5 cfu/mL) was “+”. For the same molecule, the Number of colonies (C. albicans; ATCC10231, Amphotericin B 0.1 mg, 24 hours, 10^2 cfu/mL) was “−”, the Number of colonies (C. albicans; ATCC10231, Amphotericin B 0.1 mg, 24 hours, 10^3 cfu/mL) was “−” and the Number of colonies (C. albicans; ATCC10231, Amphotericin B 0.1 mg, 24 hours, 10^4 cfu/mL) was “−”. The Number of colonies (C. albicans; ATCC10231, Amphotericin B 0.1 mg, 24 hours, 10^5 cfu/mL) was “−”, the Number of colonies (C. albicans; ATCC10231, Amphotericin B 0.1 mg, 44 hours, 10^2 cfu/mL) was “−” and the Number of colonies (C. albicans; ATCC10231, Amphotericin B 0.1 mg, 44 hours, 10^3 cfu/mL) was “−”. The Number of colonies (C. albicans; ATCC10231, Amphotericin B 0.1 mg, 44 hours, 10^4 cfu/mL) was “−”, the Number of colonies (C. albicans; ATCC10231, Amphotericin B 1.0 mg, 24 hours, 10^2 cfu/mL) was “−” and the Number of colonies (C. albicans; ATCC10231, Amphotericin B 1.0 mg, 24 hours, 10^3 cfu/mL) was “−”. For the same molecule, the Number of colonies (C. albicans; ATCC10231, Amphotericin B 1.0 mg, 24 hours, 10^4 cfu/mL) was “−”, the Number of colonies (C. albicans; ATCC10231, Amphotericin B 1.0 mg, 24 hours, 10^5 cfu/mL) was “−” and the Number of colonies (C. albicans; ATCC10231, Amphotericin B 1.0 mg, 44 hours, 10^2 cfu/mL) was “−”. For the same molecule, the Number of colonies (C. albicans; ATCC10231, Amphotericin B 1.0 mg, 44 hours, 10^3 cfu/mL) was “−”, the Number of colonies (C. albicans; ATCC10231, Amphotericin B 1.0 mg, 44 hours, 10^4 cfu/mL) was “−” and the Number of colonies (C. albicans; ATCC10231, Amphotericin B 1.0 mg, 44 hours, 10^5 cfu/mL) was “−”. The Number of colonies (C. albicans; ATCC10231, Amphotericin B 10 mg, 24 hours, 10^2 cfu/mL) was “−”, the Number of colonies (C. albicans; ATCC10231, Amphotericin B 10 mg, 24 hours, 10^3 cfu/mL) was “−” and the Number of colonies (C. albicans; ATCC10231, Amphotericin B 10 mg, 24 hours, 10^4 cfu/mL) was “−”. The Number of colonies (C. albicans; ATCC10231, Amphotericin B 10 mg, 24 hours, 10^5 cfu/mL) was “−”, the Number of colonies (C. albicans; ATCC10231, Amphotericin B 10 mg, 44 hours, 10^2 cfu/mL) was “−” and the Number of colonies (C. albicans; ATCC10231, Amphotericin B 10 mg, 44 hours, 10^3 cfu/mL) was “−”. The Number of colonies (C. albicans; ATCC10231, Amphotericin B 10 mg, 44 hours, 10^4 cfu/mL) was “−”, the Number of colonies (C. albicans; ATCC10231, Amphotericin B 10 mg, 44 hours, 10^5 cfu/mL) was “−” and the Number of colonies (C. albicans; ATCC14053, Amphotericin B 0.1 mg, 24 hours, 10^2 cfu/mL) was “−”. The Number of colonies (C. albicans; ATCC14053, Amphotericin B 0.1 mg, 24 hours, 10^3 cfu/mL) was “−”, the Number of colonies (C. albicans; ATCC14053, Amphotericin B 0.1 mg, 24 hours, 10^4 cfu/mL) was “−” and the Number of colonies (C. albicans; ATCC14053, Amphotericin B 0.1 mg, 24 hours, 10^5 cfu/mL) was “−”. The Number of colonies (C. albicans; ATCC14053, Amphotericin B 0.1 mg, 44 hours, 10^2 cfu/mL) was “−”, the Number of colonies (C. albicans; ATCC14053, Amphotericin B 0.1 mg, 44 hours, 10^3 cfu/mL) was “−” and the Number of colonies (C. albicans; ATCC14053, Amphotericin B 0.1 mg, 44 hours, 10^4 cfu/mL) was “−”. For the same molecule, the Number of colonies (C. albicans; ATCC14053, Amphotericin B 1.0 mg, 24 hours, 10^2 cfu/mL) was “−”, the Number of colonies (C. albicans; ATCC14053, Amphotericin B 1.0 mg, 24 hours, 10^3 cfu/mL) was “−” and the Number of colonies (C. albicans; ATCC14053, Amphotericin B 1.0 mg, 24 hours, 10^4 cfu/mL) was “−”. The Number of colonies (C. albicans; ATCC14053, Amphotericin B 1.0 mg, 24 hours, 10^5 cfu/mL) was “−”, the Number of colonies (C. albicans; ATCC14053, Amphotericin B 1.0 mg, 44 hours, 10^2 cfu/mL) was “−” and the Number of colonies (C. albicans; ATCC14053, Amphotericin B 1.0 mg, 44 hours, 10^3 cfu/mL) was “−”. The Number of colonies (C. albicans; ATCC14053, Amphotericin B 1.0 mg, 44 hours, 10^4 cfu/mL) was “−”, the Number of colonies (C. albicans; ATCC14053, Amphotericin B 1.0 mg, 44 hours, 10^5 cfu/mL) was “−” and the Number of colonies (C. albicans; ATCC14053, Amphotericin B 10 mg, 24 hours, 10^2 cfu/mL) was “−”. For the same molecule, the Number of colonies (C. albicans; ATCC14053, Amphotericin B 10 mg, 24 hours, 10^3 cfu/mL) was “−”, the Number of colonies (C. albicans; ATCC14053, Amphotericin B 10 mg, 24 hours, 10^4 cfu/mL) was “−” and the Number of colonies (C. albicans; ATCC14053, Amphotericin B 10 mg, 24 hours, 10^5 cfu/mL) was “−”. The Number of colonies (C. albicans; ATCC14053, Amphotericin B 10 mg, 44 hours, 10^2 cfu/mL) was “−”, the Number of colonies (C. albicans; ATCC14053, Amphotericin B 10 mg, 44 hours, 10^3 cfu/mL) was “−” and the Number of colonies (C. albicans; ATCC14053, Amphotericin B 10 mg, 44 hours, 10^4 cfu/mL) was “−”. The Number of colonies (C. albicans; ATCC14053, Amphotericin B 10 mg, 44 hours, 10^5 cfu/mL) was “−”.
